# Results: publication PMC5855688, “BC-Box Motif-Mediated Neuronal Differentiation of Somatic Stem Cells” (International Journal of Molecular Sciences, 2018)
# Entries after “also recorded” stand apart in the source; their conditions may differ.
# What was measured:
# [1] = test system: skin-derived precursors (SKPs); experiment: Western blot analysis of neuronal markers in NDD peptide-treated cells; format: cell-based, rat (neonate Wistar); details: Figure 6A
# Protocol: (§1) Rodent skin-derived precursor cells (SKPs), which can differentiate to neurons, were used. SKPs were previously isolated from the back dermis of neonate Wistar rats by the authors. These cells were cultured in growth medium composed of DMEM/F12 (1:1; Gibco, Grand Island, NY, USA) containing 2% B27 supplement (Gibco), 20 ng/mL epidermal growth factor (EGF; Upstate Biotechnology, Lake Placid, NY, USA), and 40 ng/mL bFGF (PeproTech EC Ltd., Rocky Hill, NJ, USA) in a humidified incubator at 37 °C with 5% CO2. The floating clusters of cultured cells were centrifuged and dissociated into a single-cell suspension by use of a Pasteur pipette with a flame-polished tip. These single cells were then re-suspended into at a concentration of 50,000 cells/mL for passage or experiments.
# (§2) For neuronal differentiation, cells were dissociated into a single-cell suspension by use of a Pasteur pipette and re-suspended into a concentration of 50,000 cells/mL in DMEM/F12 without serum, neurotrophic factors or growth factors. Then, the cells were cultured on poly-L-lysine-coated dishes or cover glasses, and the synthesized peptides at concentrations from 1 to 5 μM were added to the culture medium and delivered into the cells. Three days or more later, the cells were used for morphological, immunocytochemical, immunohistochemical, electrophysiological and immunoprecipitation studies, as well as for Western blot analysis.
# Cultured cells were washed 3 times in cold PBS and then scraped into ice-cold PBS. After incubation on ice for 10 min, the cells were lysed with lysis buffer and centrifuged, after which the supernatants were collected. Each sample was separated by SDS-PAGE under reducing conditions and transferred electrophoretically to nitrocellulose filters. Non-specific binding of antibody was blocked by incubation with 5% donkey serum for 1 h. Western blots were probed with anti-MAP2 antibody, anti-NFH antibody, anti-ChAT antibody, anti-GAD antibody, anti-rhodopsin antibody, anti-TH antibody, and anti-elongin C antibody (Santa Cruz, San Diego, CA, USA) followed by horseradish peroxidase-conjugated secondary antibodies. Protein bands were detected by using a chemical luminescence detection system (ECL Plus Western Blotting Reagent Pack, Amersham, Hemel Hempstead, UK). Images were analyzed with LAS-1000 (Fujifilm, Tokyo, Japan), and the density of the bands was determined by using Image Gauge software (Fujifilm).
# [2] = test system: skin-derived precursors (SKPs); experiment: Immunocytochemistry with anti-Neurofilament-H (NFH) antibody; format: cell-based, rat (neonate Wistar); details: immunocytochemistry, peptides at 1 to 5 μM; mean ± SEM; vs VHL(157–171): p < 0.01 for VHL(157–168), p < 0.005 for TAT
# Protocol: as §1, §2
# Cultured cells were fixed with 4% paraformaldehyde in PBS (Phosphate buffered saline) for 10 min at room temperature. Cells were incubated for 1 h at room temperature with primary antibodies. Antibodies against anti-MAP2 antibody (Sigma-Aldrich, St. Louis, MO, USA), anti-Neurofilment-H (NFH) antibody (Sigma-Aldrich), anti-NeuN antibody (Merk Millipore, Billerica, MA, USA), anti-GFAP antibody (DAKO, Santa Clara, CA, USA), anti-tyrosine hydroxylase (TH) antibody (Merk Millipore, Billerica, MA, USA), anti-choline acetyl transferase (ChAT) antibody (Abbiotec, San Diego, CA, USA), anti-glutamic acid decaboxylase (GAD) antibody (Enzo Life Sciences, Flamingdale, NY, USA), and anti-rhodopsin antibody (Santa Cruz, San Diego, CA, USA) were used. […] Nuclear counterstaining was done with DAPI (Molecular Probes, Eugene, OR, USA) or TO-PRO-3 (Molecular Probes), and observations were made with a fluorescence microscope system (FV300, Olympus, Tokyo, Japan). We counted the number of immuno-positive cells with a given antibody in 4 to 6 random non-overlapping visual fields (50–200 cells per field) in each experiment. […] The degree of positivity was expressed as the rate of immuno-positive cells to the total number of nuclei stained with DAP1 or TO-PRO-3.
# [3] = test system: skin-derived precursors (SKPs); experiment: Neurite outgrowth / morphological evaluation of neuronal differentiation; format: cell-based, rat (neonate Wistar)
# Protocol: as §1, §2
# Neurite outgrowth with length exceeding the diameter of the neuronal soma is often assessed as a morphological index of neuronal differentiation. After a single-cell suspension was made by pipetting, the cells were cultured in DMEN/F12 medium alone at 37 °C in a 5% CO2 incubator. Thereafter, neurite outgrowth was evaluated with the following 4 levels: +++, for above 50% of the cells showing neurite outgrowth; ++, for 20–50% with neurite outgrowth; +, for 5–19% having neurite outgrowth; and −, for below 5% of the cells with neurite outgrowth.
# JAK2 = experiment: Western blotting of JAK2 before and after peptide treatment; format: cell-based, rat; details: Western blot, Figure 5B, p < 0.01
# STAT3 = experiment: Western blotting of STAT3 before and after peptide treatment; format: cell-based, rat; details: Western blot, Figure 5B, p < 0.01
# rat brain = experiment: Immunohistochemistry (NeuN) of transplanted peptide-treated cells in rat brain; format: in vivo, rat (Wistar); details: 1 × 10^5 peptide-treated cells transplanted into rat brain, 6 weeks; mean ± SEM; vs VHL(157–171): p < 0.01 for VHL(157–168), p < 0.005 for TAT
# Protocol: To evaluate neuronal differentiation of transplanted cells in rat brains, immunohistochemical study was performed as described previously. Before grafting, cells were preincubated with red fluorescence PKH26PCL (Sigma, St. Louis, MO, USA). […] Rats were anesthetized with isoflurane before surgery, and 1 × 10^5 cells were transplanted into rat brain. The rats were perfused with periodate-lysine-paraformaldehyde solution 6 weeks after the transplantation. Their brains were subsequently dissected and postfixed in the same medium for 2 h, cryopreserved in 30% sucrose for 12 h, and then embedded in Tissue Tek OCT compound (Sakura, Tokyo, Japan). Cryostat coronal sections of 14-μm thickness were prepared for immunohistochemistry. For immunostaining, sections were incubated with primary antibody, anti-NeuN antibody, and then incubated in secondary antibody, FITC-conjugated anti-rabbit IgG. Counterstaining was done with DAPI. In immohistochemistry, observations were made with a confocal immunofluorescence microscope (FV300, Olympus, Tokyo, Japan).
# Wistar rats (Clea, Tokyo, Japan) were used in all experiments and housed in a temperature controlled room on a 12-h day/night cycle with free access to food and water. All animal experimental procedures were approved by the Institutional Animal Use Committee of Yokohama City University (ID 153, 1 April 2015) and were in accordance with National Institutes of Health guidelines for care and use of laboratory animals.
sequence,measurement,setting,value
"YARAAARQARATLKERCLQVVRSLVK [VHL(157–171), NDD in pVHL: BC-box motif plus five amino acids, conjugated with PTD]",Expression of ChAT,[1]; choline acetyltransferase,high
same,Expression of TH,[1]; tyrosine hydroxylase,moderate
same,Percentage of NFH-positive cells,[2],60.4 ± 6.4%
same,Neurite Outgrowth Activity,"[3]; BC-box motif plus five C-terminal amino acids peptides, delivered with TAT PTD, 1 to 5 μM",+++ (above 50% of the cells showing neurite outgrowth)
same,Neurite Outgrowth Activity,"[3]; Figure 2A, rates of cells having neurites, peptides at 1 to 5 μM, VHL157–168 vs VHL(157–171) p < 0.005",showed neurite outgrowth activity to the same extent as VHL(155–171); also recorded: greatest of rate of cells having neurites
same,JAK2 degradation,JAK2,JAK2 and STAT3 were indeed degraded
same,STAT3 degradation,STAT3,JAK2 and STAT3 were indeed degraded
same,Positive rates of NeuN,rat brain,42.5 ± 4.5%
